The source of these data is patent publication US12527849B2, “Apparatus for determining administration form of a composition of an engineered virus-based nanoparticle for a treatment of an autoimmune condition” (Diamante Srl, priority 2021, dated 2026).

This assay concerns IL-17A. Briefly: Cytokine ELISA in CIA mice, day 60: IL-17A. In kind it is in vivo. An excerpt:
With continued reference to FIG. 1, in some embodiments, administration 116 may be done to an animal. As a non-limiting example, the animal may include a mouse, a fish, a rabbit, human, and the like. As a non-limiting example, administration 116 of composition of the engineered virus-based nanoparticle for a treatment of an autoimmune condition may be done to dilute, brown, and non-agouti (DBA) mice based on their susceptibility to collagen-induced arthritis (CIA). Female DBA/1 mice 6 to 8 weeks of age may be maintained under specific pathogen-free conditions. CIA may be induced by the intradermal tail base injection of 100 μg of chicken type II collagen (Sigma-Aldrich) as previously described. Five mice per group may be immunized on days 0 and 21 to induce arthritis. The onset of disease may be confirmed on the day that swelling or erythema may be observed in any paw, typically 4 to 10 days after the second immunization. […] CIA may be assessed using a macroscopic score system based on the visual identification of arthritic limbs. The clinical severity of arthritis may be evaluated as follows: Each mouse may be inspected every 2 to 3 days for three different parameters: (i) swelling of the hind ankle and foot, measured with calipers; (ii) erythema of each leg; and (iii) swelling of the fingers. The RA index for each mouse was expressed as the mean of the three scores from the individual parameters. At the end of the experiment (60 days), we determined the proportion of CD25+Foxp3+ cells in the lymph nodes and measured cytokine titers in the lymph nodes, joints, and serum.
With continued reference to FIG. 1, in some embodiments, processor 104 may determine critical administration 124 as a function of a cytokine profile and a proportion of CD25^+ Foxp3^+ cells. […] In some embodiments, to quantify cytokines in DBA mice, joint tissues may be pulverized and resuspended in 1 ml of lysis medium per 100-mg joint weight for 60 min at 37′C, followed by centrifugation to remove debris. […]

For `C[C@@H]1C[C@H]2[C@@H]3CCC4=CC(=O)C=C[C@]4(C)[C@@]3(F)[C@@H](O)C[C@]2(C)[C@@]1(O)C(=O)CO` [Dexamethasone, dexamethasone], the “IL-17A J” value (joint supernatant, CIA mice, day 60, mean n=3) is 1219.43 pg/mL. In addition, where the note is “lymph node supernatant, CIA mice, day 60, mean n=3”, the “IL-17A LN” value is 1540.40 pg/mL. Further, the “IL-17A S” value (serum pooled from five CIA mice, day 60) turned out to be 313.8 pg/mL.
